What is called IC50 is the concentration that inhibits the measured activity by half. Higher therefore signals a need for much substance.

For this test, the target named is LRRK2 G2019S enzyme (Homo sapiens (Human), UniProt Q5S007, G2019S). The experiment in a line: LRRK2 G2019S TR-FRET biochemical kinase assay (LRRKtide substrate). As to conditions: Table D-4; 5 nM LRRK2, 134 μM ATP, 60 minute reaction, 23° C. In a few lines: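 TR-FRET phospho-LRRKtide readout (2 nM antibody, 10 mM EDTA, 60 min) after a 60 min, 23 °C kinase reaction. The reaction used 134 μM ATP and 5 nM enzyme in pH 7.5 Tris/MgCl2/EGTA/DTT buffer, with compound and enzyme-substrate mix preincubated for 20 min beforehand.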
Sequence of LRRK2 G2019S enzyme (Q5S007 whole entry G2019S): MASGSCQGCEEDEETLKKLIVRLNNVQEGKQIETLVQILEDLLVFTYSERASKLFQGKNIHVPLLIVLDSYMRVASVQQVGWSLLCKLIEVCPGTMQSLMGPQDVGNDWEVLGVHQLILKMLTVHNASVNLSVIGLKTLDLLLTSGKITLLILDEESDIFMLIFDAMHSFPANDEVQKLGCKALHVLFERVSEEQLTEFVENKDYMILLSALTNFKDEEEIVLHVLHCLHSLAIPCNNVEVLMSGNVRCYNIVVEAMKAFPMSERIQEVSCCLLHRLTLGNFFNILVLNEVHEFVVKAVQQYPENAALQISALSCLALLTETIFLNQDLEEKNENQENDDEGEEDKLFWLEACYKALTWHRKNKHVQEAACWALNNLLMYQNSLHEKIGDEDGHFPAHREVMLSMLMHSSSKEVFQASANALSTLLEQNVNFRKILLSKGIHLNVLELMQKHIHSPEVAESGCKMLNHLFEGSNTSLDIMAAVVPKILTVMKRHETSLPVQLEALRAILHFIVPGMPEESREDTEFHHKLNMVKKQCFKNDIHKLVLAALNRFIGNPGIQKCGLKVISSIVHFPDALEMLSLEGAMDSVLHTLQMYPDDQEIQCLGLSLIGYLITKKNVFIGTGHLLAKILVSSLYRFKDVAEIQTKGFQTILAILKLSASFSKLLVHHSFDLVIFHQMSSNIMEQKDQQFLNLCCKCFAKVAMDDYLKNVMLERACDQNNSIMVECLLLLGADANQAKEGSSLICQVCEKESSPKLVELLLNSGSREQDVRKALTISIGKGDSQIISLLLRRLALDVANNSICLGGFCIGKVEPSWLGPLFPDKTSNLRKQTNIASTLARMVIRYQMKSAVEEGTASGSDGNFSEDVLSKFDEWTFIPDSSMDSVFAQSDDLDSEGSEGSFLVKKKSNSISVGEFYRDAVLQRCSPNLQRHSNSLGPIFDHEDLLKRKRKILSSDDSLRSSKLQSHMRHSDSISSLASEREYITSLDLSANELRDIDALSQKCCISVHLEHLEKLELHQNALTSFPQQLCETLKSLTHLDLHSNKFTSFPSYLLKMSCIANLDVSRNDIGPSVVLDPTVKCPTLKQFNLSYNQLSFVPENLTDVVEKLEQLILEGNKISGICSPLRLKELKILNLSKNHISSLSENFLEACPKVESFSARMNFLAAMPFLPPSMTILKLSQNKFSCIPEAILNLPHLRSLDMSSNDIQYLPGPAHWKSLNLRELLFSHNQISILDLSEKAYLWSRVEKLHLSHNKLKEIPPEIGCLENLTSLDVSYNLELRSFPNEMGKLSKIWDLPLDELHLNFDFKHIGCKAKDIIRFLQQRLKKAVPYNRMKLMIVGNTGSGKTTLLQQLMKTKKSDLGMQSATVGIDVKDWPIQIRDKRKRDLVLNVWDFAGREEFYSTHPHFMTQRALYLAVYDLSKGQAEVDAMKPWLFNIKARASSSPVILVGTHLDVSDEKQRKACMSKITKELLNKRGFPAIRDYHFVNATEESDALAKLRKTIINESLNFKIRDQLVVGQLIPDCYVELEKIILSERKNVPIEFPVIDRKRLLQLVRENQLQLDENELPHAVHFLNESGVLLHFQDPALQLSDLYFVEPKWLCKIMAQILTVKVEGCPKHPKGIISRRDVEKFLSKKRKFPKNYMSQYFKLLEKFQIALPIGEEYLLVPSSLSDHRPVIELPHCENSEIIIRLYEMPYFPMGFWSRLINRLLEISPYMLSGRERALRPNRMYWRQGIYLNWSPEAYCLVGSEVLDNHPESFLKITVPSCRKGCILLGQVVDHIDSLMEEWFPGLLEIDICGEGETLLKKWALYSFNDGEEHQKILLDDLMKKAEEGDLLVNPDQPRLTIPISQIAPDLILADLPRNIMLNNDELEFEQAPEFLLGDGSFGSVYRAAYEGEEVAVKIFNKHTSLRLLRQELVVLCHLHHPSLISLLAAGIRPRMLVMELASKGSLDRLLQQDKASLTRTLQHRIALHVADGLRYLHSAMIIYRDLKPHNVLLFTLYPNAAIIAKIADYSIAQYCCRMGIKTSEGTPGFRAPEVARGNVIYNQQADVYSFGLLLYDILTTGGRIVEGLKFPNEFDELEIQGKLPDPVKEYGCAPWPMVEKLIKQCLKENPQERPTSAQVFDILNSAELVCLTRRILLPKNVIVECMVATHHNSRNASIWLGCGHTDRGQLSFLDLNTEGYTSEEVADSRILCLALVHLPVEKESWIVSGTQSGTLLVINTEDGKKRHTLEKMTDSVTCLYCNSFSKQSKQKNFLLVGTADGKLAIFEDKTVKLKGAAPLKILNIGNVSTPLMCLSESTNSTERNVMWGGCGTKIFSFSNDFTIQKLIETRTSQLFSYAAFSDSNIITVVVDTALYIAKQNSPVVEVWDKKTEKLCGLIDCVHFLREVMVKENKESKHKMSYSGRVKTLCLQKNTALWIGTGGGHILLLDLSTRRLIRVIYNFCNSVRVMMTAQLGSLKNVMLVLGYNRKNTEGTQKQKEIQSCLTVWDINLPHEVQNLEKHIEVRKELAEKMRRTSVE
A general note: TR-FRET usually uses a lanthanide donor and a delayed reading to cut background.
Consider `CNc1nc(Nc2cnn([C@@](C)(C#N)C(F)F)c2C)ncc1C(F)(F)F` [Compounds D-200], for which the concentration for half-maximal inhibition (IC50) is below 30 nM. The result for `Cc1c(Nc2ncc(C(F)(F)F)c(NC3CC3)n2)cnn1[C@](C)(C#N)CF` [Compounds D-201] reads below 30 nM. The molecule `Cc1c(Nc2ncc(C(F)(F)F)c(NC3CC3)n2)cnn1C(C)(C#N)CF` [Compounds D-202] displayed an IC50 below 30 nM. As to `CCNc1nc(Nc2cnn([C@@]3(C)CCn4ccnc43)c2C)ncc1C(F)(F)F` [Compounds D-205], the half-maximal inhibitory concentration (IC50) was above 60 nM. The result for `CCNc1nc(Nc2cnn([C@]3(C)CCn4ccnc43)c2C)ncc1C(F)(F)F` [Compounds D-206] reads below 30 nM.

These data come from patent US11214565B2, “Compound, compositions, and methods” (Denali Therapeutics Inc., priority 2015, dated 2022).
